Measured values taken from patent US10472352B2, “Rac inhibitors” (Geneyus LLC, priority 2017, dated 2019).

Key:
[1] = tested on: estrogen receptor response genes Cyclin D1 and pS2 in MCF7 breast cancer cells; experiment: Inhibition of Estrogen Receptor Target Gene Protein Expression (immunoblot); format: cell-based; conditions: MCF7, 10 nM E2, 18 hours; 1 uM fulvestrant; 5 or 10 uM 0032661
Method: After 18 hours, protein was harvested. SDS-PAGE followed by immunoblotting of samples was performed using standard techniques. Protein lysates were immunoblotted for Estrogen Receptor (ER), Cyclin D1, pS2, and Actin.

[2] = tested on: estrogen receptor response gene (SDF) in MCF7 breast cancer cells; experiment: Inhibition of Estrogen Receptor Target Gene Transcription (SDF qPCR); format: cell-based; conditions: MCF7, 10 nM estradiol, 4 hours; 1 uM fulvestrant; 5 or 10 uM 0032661
Method: After 4 hours, RNA was harvested and converted into cDNA. qPCR analysis for SDF was performed on all samples and normalized to expression of GAPDH. The data, shown in FIG. 7, is expressed as fold change relative to SDF expression of the cFBS sample.

[3] = tested on: BT474 breast cancer cells; experiment: BT474 Four (4) Day Cell Viability Assay; format: cell-based; conditions: BT474, 4 days, 32661 0 μM
Method: BT474 breast cancer cells that are Estrogen Receptor Positive and HER2+ were grown in 5% cFBS. 5,000 cells were seeded into each well of a 96-well plate and treated with escalating doses of lapatinib, fulvestrant, and 32661.

[4] = tested on: PSA in LNCaP prostate cancer cells; experiment: Inhibition of Increased Protein Levels of PSA (immunoblot); format: cell-based; conditions: 10 nM DHT, 18 hours, 5 uM enzalutamide, 10, 15 or 20 uM 0032661
Method: After 18 hours protein was harvested. SDS-PAGE followed by immunoblotting of samples was performed using standard techniques. Protein lysates were immunoblotted for the Androgen Receptor (AR), PSA, and Actin.

[5] = molecular target: His-Rac1 / GST-PBD (PAK Binding Domain) (Homo sapiens, UniProt P63000); experiment: Rac Activation AlphaScreen Assay (Rac1 AS); format: biochemical; conditions: 500 nM GTPγS, 37° C., 1 hour; 'positive' = signal generated was higher than the positive control
Method: AlphaScreen® assays were performed in 96-well microplates in a final reaction volume of 60 μl. Recombinant His-Rac1, recombinant GST-PBD (PAK Binding Domain), donor and acceptor beads (PerkinElmer), and inhibitors were incubated in exchange buffer (20 mM Tris pH 7.5, 50 mM NaCl, 1 mM MgCl2, 1 mM EDTA, 500 nM GTPγS (guanosine 5′-[γ-thio]triphosphate)) at 37° C. Readings were performed on a Tecan M1000 pro microplate reader after 1 hour.

[6] = molecular target: T1, Rac1 protein (Homo sapiens, UniProt P63000); experiment: Fluorescence Polarization Assay (Rac1 FP); format: binding; conditions: 125 nM his-tagged Rac1, 12.5 nM Bodipy-TR GTPγS, 30 minutes at 37° C.
T1 construct: purchased Cytoskeleton Inc. RC01
Method: Direct binding of Rac1 compound inhibitors to Rac1 protein was performed using fluorescence polarization (FP). Briefly, Rac1 inhibitors were initially dissolved in DMSO and then serial drug dilutions in exchange buffer (20 mM Tris pH 7.5, 50 mM NaCl, 1 mM MgCl, 1 mM EDTA) were prepared in a flat black 96-well half-area plate (Greiner). Recombinant his-tagged Rac1 protein (Cytoskeleton Inc. Cat. # RC01) was added to the inhibitors at a final concentration of 125 nM along with 12.5 nM Bodipy-TR GTPγS (Life Technologies Inc. Cat. # G35780) in exchange buffer and incubated for 30 minutes at 37° C. in exchange buffer. After 30 minutes of incubation. FP was measured on the M1000 Pro (Tecan) fluorescent plate reader with 590 nm±5 nm excitation and 625 nm±5 nm emission spectra settings.

[7] = tested on: MCF-7 human breast cancer cell line; experiment: Cell Viability Assay (MCF7), PrestoBlue; format: cell-based; conditions: MCF7, 72 h, MCF-7 cells, three days after drug treatment
Method: In order to determine a compound's effect on cell viability, PrestoBlue assays were performed as previously described by Kuhn et al. (2013) with modifications. MCF-7 human breast cancer and IGR-1 human melanoma cell lines were seeded into 96-well plates 24 hours prior to addition of drug. Cells were treated with 0 to 200 μM (11 concentrations) of compound solubilized in DMSO, adjusting the final concentration of DMSO to 1% in the well. Three days after drug treatment, cell viability was measured by adding PrestoBlue (Life Technologies Ltd.; cat. No. A13262) reagent directly to wells containing media/drug to reach a final concentration of 10%. PrestoBlue is a modified molecule of the common Alamar Blue probe used to determine viability based on the ability of a cell to metabolize a nonfluorescent compound (resazurin) to a florescent molecule (resorufin). Following a 1 hour incubation period, total well fluorescence was measured using the microplate reader M1000 pro (Tecan) with excitation 560-5 nm and emission 590-5 nm. […] The percentage of living cells was then computed by comparison with control wells. Kuhn, Jonas et al., Assay and Drug Development Technologies, March 2013, Label-Free Cytotoxicity Screening Assay by Digital Holographic Microscopy.

In the case of `C[C@]12CC[C@@H]3c4ccc(O)cc4C[C@@H](CCCCCCCCC[S+]([O-])CCCC(F)(F)C(F)(F)F)[C@H]3[C@@H]1CC[C@@H]2O` (some centres unmarked) [Fulvestrant, fulvestrant, reference compound], the “protein levels of estrogen receptor target genes (Cyclin D1, pS2)” value [1] is reported as “inhibit the increase in protein levels of estrogen receptor target genes”, the “estrogen receptor target gene transcription (SDF)” value [2] is reported as “inhibit the estrogen receptor target gene transcription” and the cellular viability ([3]; fulvestrant 6.9 nM, lapatinib 0.0 nM) is reported as 94%. For the same molecule, the cellular viability ([3]; fulvestrant 6.9 nM, lapatinib 6.9 nM) was 96%, the cellular viability ([3]; fulvestrant 6.9 nM, lapatinib 20.6 nM) was 96% and the cellular viability ([3]; fulvestrant 6.9 nM, lapatinib 61.7 nM) was 87%. It also gave a cellular viability ([3]; fulvestrant 6.9 nM, lapatinib 185.2 nM) of 85%, a cellular viability ([3]; fulvestrant 6.9 nM, lapatinib 555.6 nM) of 79% and a cellular viability ([3]; fulvestrant 6.9 nM, lapatinib 1666.7 nM) of 69%. The cellular viability ([3]; fulvestrant 6.9 nM, lapatinib 3333.0 nM) was 51%, the cellular viability ([3]; fulvestrant 20.6 nM, lapatinib 0.0 nM) was 94% and the cellular viability ([3]; fulvestrant 20.6 nM, lapatinib 6.9 nM) was 88%. It also gave a cellular viability ([3]; fulvestrant 20.6 nM, lapatinib 20.6 nM) of 88%, a cellular viability ([3]; fulvestrant 20.6 nM, lapatinib 61.7 nM) of 83% and a cellular viability ([3]; fulvestrant 20.6 nM, lapatinib 185.2 nM) of 82%. It also gave a cellular viability ([3]; fulvestrant 20.6 nM, lapatinib 555.6 nM) of 78%, a cellular viability ([3]; fulvestrant 20.6 nM, lapatinib 1666.7 nM) of 63% and a cellular viability ([3]; fulvestrant 20.6 nM, lapatinib 3333.0 nM) of 47%. For the same molecule, the cellular viability ([3]; fulvestrant 61.7 nM, lapatinib 0.0 nM) was 91%, the cellular viability ([3]; fulvestrant 61.7 nM, lapatinib 6.9 nM) was 89% and the cellular viability ([3]; fulvestrant 61.7 nM, lapatinib 20.6 nM) was 89%. The cellular viability ([3]; fulvestrant 61.7 nM, lapatinib 61.7 nM) was 90%, the cellular viability ([3]; fulvestrant 61.7 nM, lapatinib 185.2 nM) was 88% and the cellular viability ([3]; fulvestrant 61.7 nM, lapatinib 555.6 nM) was 77%. It also gave a cellular viability ([3]; fulvestrant 61.7 nM, lapatinib 1666.7 nM) of 66%, a cellular viability ([3]; fulvestrant 61.7 nM, lapatinib 3333.0 nM) of 34% and a cellular viability ([3]; fulvestrant 185.2 nM, lapatinib 0.0 nM) of 94%. For the same molecule, the cellular viability ([3]; fulvestrant 185.2 nM, lapatinib 6.9 nM) was 91%, the cellular viability ([3]; fulvestrant 185.2 nM, lapatinib 20.6 nM) was 91% and the cellular viability ([3]; fulvestrant 185.2 nM, lapatinib 61.7 nM) was 91%. The cellular viability ([3]; fulvestrant 185.2 nM, lapatinib 185.2 nM) was 88%, the cellular viability ([3]; fulvestrant 185.2 nM, lapatinib 555.6 nM) was 74% and the cellular viability ([3]; fulvestrant 185.2 nM, lapatinib 1666.7 nM) was 63%. It also gave a cellular viability ([3]; fulvestrant 185.2 nM, lapatinib 3333.0 nM) of 36%, a cellular viability ([3]; fulvestrant 555.6 nM, lapatinib 0.0 nM) of 87% and a cellular viability ([3]; fulvestrant 555.6 nM, lapatinib 6.9 nM) of 90%. It also gave a cellular viability ([3]; fulvestrant 555.6 nM, lapatinib 20.6 nM) of 90%, a cellular viability ([3]; fulvestrant 555.6 nM, lapatinib 61.7 nM) of 88% and a cellular viability ([3]; fulvestrant 555.6 nM, lapatinib 185.2 nM) of 82%. The cellular viability ([3]; fulvestrant 555.6 nM, lapatinib 555.6 nM) was 74%, the cellular viability ([3]; fulvestrant 555.6 nM, lapatinib 1666.7 nM) was 58% and the cellular viability ([3]; fulvestrant 555.6 nM, lapatinib 3333.0 nM) was 26%. It also gave a cellular viability ([3]; fulvestrant 1666.7 nM, lapatinib 0.0 nM) of 80%, a cellular viability ([3]; fulvestrant 1666.7 nM, lapatinib 6.9 nM) of 79% and a cellular viability ([3]; fulvestrant 1666.7 nM, lapatinib 20.6 nM) of 76%. It also gave a cellular viability ([3]; fulvestrant 1666.7 nM, lapatinib 61.7 nM) of 75%, a cellular viability ([3]; fulvestrant 1666.7 nM, lapatinib 185.2 nM) of 68% and a cellular viability ([3]; fulvestrant 1666.7 nM, lapatinib 555.6 nM) of 65%. The cellular viability ([3]; fulvestrant 1666.7 nM, lapatinib 1666.7 nM) was 47%, the cellular viability ([3]; fulvestrant 1666.7 nM, lapatinib 3333.0 nM) was 15% and the cellular viability ([3]; fulvestrant 3333.0 nM, lapatinib 0.0 nM) was 60%. It also gave a cellular viability ([3]; fulvestrant 3333.0 nM, lapatinib 6.9 nM) of 53%, a cellular viability ([3]; fulvestrant 3333.0 nM, lapatinib 20.6 nM) of 53% and a cellular viability ([3]; fulvestrant 3333.0 nM, lapatinib 61.7 nM) of 26%. It also gave a cellular viability ([3]; fulvestrant 3333.0 nM, lapatinib 185.2 nM) of 24%, a cellular viability ([3]; fulvestrant 3333.0 nM, lapatinib 555.6 nM) of 32% and a cellular viability ([3]; fulvestrant 3333.0 nM, lapatinib 1666.7 nM) of 20%. The cellular viability ([3]; fulvestrant 3333.0 nM, lapatinib 3333.0 nM) was 4%.

For `CNC(=O)c1ccc(N2C(=S)N(c3ccc(C#N)c(C(F)(F)F)c3)C(=O)C2(C)C)cc1F` [enzalutamide, reference compound], the “increase in protein levels of PSA” value [4] was “inhibit the increase in protein levels of PSA”.

Work on `CN(Cc1cn(CCCCCCSc2ccnc3cc(C(F)(F)F)ccc23)cn1)c1ccccc1` [Compound 0032887, N-methyl-N-{[1-(6-{[7-(trifluoromethyl)quinolin-4-yl]sulfanyl)hexyl}-1H-imidazol-4-yl]methyl}aniline] yielded an IC50 [5] of 4.7 µM, an IC50 [6] of 1.18 µM and an IC50 [7] of 11.8 µM.
